Where “and” joins values, the source holds several entries; their conditions need not be identical. Identical values can stand only once.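 48-hour exposure; five concentrations; linearly interpolated endpoints. GI50 marks 50% less growth. At the TGI there is no net growth.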
Assays:
Experiment in all cases: DTP human tumour cell line panel, 48 h
[1] = test system: A498 renal
[2] = test system: IGROV1 ovarian
[3] = test system: K-562 leukemia
[4] = test system: OVCAR-8 ovarian
[5] = test system: RPMI-8226 leukemia
[6] = test system: SF-268 CNS
[7] = test system: SR leukemia
[8] = test system: SNB-75 CNS

SMILES	TGI [1]	TGI [2] [µM]	TGI [3]	TGI [4]	TGI [5] [µM]	TGI [6] [µM]	TGI [7]	TGI [8] [µM]	GI50 [1] [µM]	GI50 [2] [µM]	GI50 [3]	GI50 [4]	GI50 [6] [µM]	GI50 [8] [µM]	GI50 [7]	GI50 [5] [µM]
N#CC(C(=O)O)C(c1c(Cl)cccc1Cl)C(C#N)C(=O)O (configuration not stated)	> 100 µM	> 100	> 100 µM	> 100 µM	> 100	> 100	> 100 µM	–	–	–	–	–	–	–	–	–
S=C1SCN(C2CCCCCCCCCCC2)CN1C1CCCCCCCCCCC1	> 100 µM	> 100	> 100 µM	> 100 µM	> 100	> 100	> 100 µM	> 100	–	–	–	–	–	–	–	–
C=C1C(=O)O[C@H]2[C@H]1CC/C(Cn1cc(-c3ccsc3)nn1)=C\CC[C@@]1(C)O[C@@H]21	12.6 µM	5.03	11.7 µM	11 µM	–	8.15	9.39 µM	18.2	2.65	1.92	2.51 µM	2.96 µM	2.53	3.23	0.56 µM	–
O=C(O)CNC(=O)C1NC(C(F)(F)F)(C(F)(F)F)OC1(C(F)(F)F)C(F)(F)F (configuration not stated)	> 100 µM	> 100	> 100 µM	> 100 µM	> 100	> 100	> 100 µM	> 100	–	–	–	–	–	–	–	–
Cc1ccc2c(c1)-c1oc(=O)c(-c3cc4ccccc4oc3=O)cc1C(O)O2 (configuration not stated)	30.3 µM	52.1	76.6 µM	62.5 µM	> 100	> 100	82.8 µM	47	16.2	17.4	26.2 µM	19.9 µM	34.2	15.6	22.9 µM	35.1
COc1cccc(NC(=O)c2ccc(NC3=C(Cl)C(=O)N(Cc4ccccc4)C3=O)cc2)c1	48.9 µM	28.7	47.2 µM	16.5 µM	–	37.4	–	–	22.2	13.3	18.9 µM	4.17 µM	17.5	–	–	–
COc1c(N2CCN(CN3C(=O)C(=O)c4ccccc43)C(C)C2)c(F)cc2c(=O)c(C(=O)O)cn(C3CC3)c12 (configuration not stated)	> 100 µM	> 100	> 100 µM	> 100 µM	> 100	> 100	> 100 µM	> 100	33.6	> 100	47 µM	> 100 µM	46	> 100	32.1 µM	78.7
O=C1CCC(N2C(=O)c3cccc(NCCOCCOCCNC(=O)c4cc5c(o4)C(=O)c4ccccc4C5=O)c3C2=O)C(=O)N1 (configuration not stated)	3.12 µM	4.29	12.7 µM	10.5 µM	7.85	5.72	22.9 µM	4.16	1.66	1.87	2.55 µM	2.04 µM	2.18	2.47	1.76 µM	2.43
C[C@H](C(O)CC(=O)C(C)(C)O)[C@H]1CC[C@@]2(C)[C@@H]3CC[C@H]4C(C)(C)[C@@H](OC5OC(COC6OC(CO)C(O)C(O)C6O)C(O)C(O)C5O)CC[C@]4(C)C3=CC[C@]12C (some centres not stated)	> 100 µM	> 100	> 100 µM	> 100 µM	> 100	> 100	> 100 µM	> 100	–	–	–	–	–	–	–	–
COc1ccc(-c2cc(-c3ccc(Cl)cc3)nc(SCCCCCCC(=O)NO)n2)cc1	3.8 µM	12.5	8.86 µM	> 50 µM	> 50	6.54	3.66 µM	23.8	1.28	1.41	1.72 µM	1.53 µM	1.79	1.36	0.59 µM	1.12
COc1ccc2c(c1)c(-c1ccc(-c3cn(C)c4ccc(OC)cc34)o1)cn2C	> 100 µM	> 100	> 100 µM	> 100 µM	5.07	> 100	–	53.7	> 100	29.6	2.86 µM	8.02 µM	9.24	13.6	–	2.25
N#Cc1ccc(NC(=O)Nc2nc3ccc(OC(F)(F)F)cc3s2)cc1	4.41 µM	16.1	26.1 µM	9.91 µM	13.3	16.8	5.77 µM	7.19	0.473	2	0.534 µM	2 µM	3.06	1.84	0.736 µM	1
COC(=O)[C@H](Cc1cn(C)cn1)NC(=O)[C@@H](NC(=O)Nc1cc(C(F)(F)F)cc(C(F)(F)F)c1)C(C)(C)C	> 10 µM	> 10	> 10 µM	> 10 µM	> 10	> 10	> 10 µM	> 10	> 10	> 10	> 10 µM	> 10 µM	> 10	> 10	> 10 µM	> 10
CCOC(=O)C(=O)C(/C(=N/N(C)C)C(=O)Nc1ccc(C)cc1C)c1nc2ccccc2[nH]c1=O (configuration not stated)	> 100 µM	> 100	> 100 µM	> 100 µM	> 100	> 100	> 100 µM	> 100	–	–	–	–	–	–	–	–
CCCCCCC(O)C(O)CCC(O)C1CCC(CCCCC(O)CC2=CC(C)OC2=O)O1 (configuration not stated)	47.6 µM	–	27.6 µM	6.65 µM	30.6	48.8	–	60.8	–	–	–	–	20.3	24.1	–	–
O=S(=O)(NCCNc1cc(-c2cn(-c3ccccc3)nc2-c2cccc(O)c2)ccn1)c1ccc(Br)cc1	5.47 µM	15.5	5.49 µM	12.6 µM	5.73	7.06	5.58 µM	6.94	1.45	3.33	1.98 µM	3.47 µM	2.25	2.03	1.97 µM	2.21
Cc1ccc(-n2c3c(c4c(CN)c(O)ccc42)CCc2ccccc2C3=O)cc1	16.8 µM	22.8	–	38 µM	23.1	28.3	5.38 µM	39.3	4.17	8.18	–	19.7 µM	9.06	18.9	2.33 µM	4.31
Clc1nc(-c2ccccc2)nc(Cl)c1Cl	31.5 µM	21.6	> 43.2 µM	41.2 µM	28.1	30.7	7.53 µM	29.1	–	–	–	–	–	–	–	–

SMILES	TGI [1]	TGI [2] [µM]	TGI [3]	TGI [4]	TGI [5] [µM]	TGI [6] [µM]	TGI [7]	TGI [8] [µM]	GI50 [1] [µM]	GI50 [2] [µM]	GI50 [3]	GI50 [4]	GI50 [6] [µM]	GI50 [8] [µM]	GI50 [7]	GI50 [5] [µM]
CCN(CC)CCOc1ccc(Cc2ccccc2)cc1	87 µM	74.6	–	> 100 µM	76.1	> 100	–	94.9	19.3	24	–	60.6 µM	35.3	19	–	20.7
CC(=Nc1ccccc1)C1=C(O)C(Cc2ccc(F)cc2)NC1=O (configuration not stated)	5.04 µM	> 100	> 100 µM	> 100 µM	> 100	> 100	> 100 µM	–	0.444	1.71	0.343 µM	2.73 µM	4.45	–	0.26 µM	0.859
CCCC(=O)Nc1c(I)cc(I)c(CC(CC)C(=O)O)c1I (configuration not stated)	> 100 µM	> 100	> 100 µM	> 100 µM	> 100	> 100	> 100 µM	> 100	> 100	> 100	> 100 µM	> 100 µM	> 100	> 100	> 100 µM	> 100
COc1ccc(C[C@H]2NC[C@H](O)[C@H]2OC(C)=O)cc1	0.32 µM	0.153	0.11 µM	0.0897 µM	0.332	1.03	–	0.0668	–	–	–	–	–	–	–	–
CN1CCN(c2ccc(-c3cccc(CN4CCOCC4)c3)cc2NC(=O)c2c[nH]c(=O)cc2C(F)(F)F)CC1	–	> 100	51 µM	> 100 µM	> 100	> 100	63.7 µM	99.8	–	60.7	22.1 µM	48.7 µM	62.5	13.6	26.4 µM	38.2
CCCCCC(=C/c1ccccc1)/C=N/N=C(N)N	1.99 µM	2.72	–	3.54 µM	3.55	2.99	–	2.7	0.621	1.32	–	1.74 µM	1.45	1.35	–	1.42
CC(C)=CCc1c(O)c(C(=O)CC(C)C)c(O)c2c(-c3ccccc3)cc(=O)oc12	28.8 µM	> 50	> 50 µM	> 50 µM	16.6	> 50	> 50 µM	41.9	7.4	9.7	3.05 µM	8.98 µM	12.5	9.27	12.8 µM	2.68
CCN(CC)/[N+]([O-])=N/OCC(C)O (configuration not stated)	> 100 µM	> 100	> 100 µM	> 100 µM	–	> 100	> 100 µM	> 100	–	–	–	–	–	–	–	–
CN[C@H]1CC[C@]23C[C@]24CC[C@]2(C)[C@@H]([C@H](C)N(C)C)CC[C@@]2(C)[C@@H]4CC[C@H]3C1(C)C	35.4 µM	35.1	–	32.9 µM	31.3	31.5	–	33.2	–	–	–	–	–	–	–	–
CNC(=S)N(C1CCCCC1)C1CCCCC1	–	> 100	> 100 µM	> 100 µM	> 100	> 100	> 100 µM	> 100	–	–	–	–	–	–	–	–
C[C@@]1(O)CCC[C@H]1n1c(=O)c(C(F)F)cc2cnc(NC3CCN(S(C)(=O)=O)CC3)nc21	–	43.7	> 100 µM	> 100 µM	8.64	7.34	> 100 µM	2.38	–	1.38	1.96 µM	2.11 µM	2.07	0.223	1.96 µM	1.11
C#CCN(Cc1nc2cc(C(F)(F)F)ccc2nc1-c1ccccc1)c1ccc(F)cc1	92.8 µM	> 100	> 100 µM	> 100 µM	68.7	> 100	–	> 100	38	23.1	19.5 µM	29.4 µM	37.9	90.3	–	23.3
COc1cc2c(cc1OC)-c1ncc3cc(OC)c(OC)cc3c1C2	–	> 50	> 50 µM	> 50 µM	> 50	–	> 50 µM	> 50	–	20.2	> 50 µM	> 50 µM	–	> 50	31.8 µM	14
CN(C)C1C(=O)C(C(N)=O)=C(O)C2(O)C(=O)C3=C(O)c4c(O)cccc4C(C)(O)C3CC12 (configuration not stated)	95.5 µM and > 100 µM	> 100	48.5 µM and > 100 µM	34.9 µM and > 100 µM	> 100	–	55.1 µM and > 100 µM	–	–	–	23.2 µM and > 100 µM	15.4 µM and > 100 µM	–	–	26.4 µM and > 100 µM	–
O=C(Nc1ccc(N2CCNCC2)cn1)c1[nH]ncc1Nc1ncnc2sccc12	31.5 µM	24.6	–	4.02 µM	6.71	–	–	21.2	13.4	4.27	–	1.96 µM	–	4.89	–	2.32
O=C1c2ccccc2-c2c1c1ccc([N+](=O)[O-])cc1c(=O)n2CCCn1ccnc1	8.88 µM	2.71	5.16 µM	4.78 µM	0.0653	15.1	–	0.862	0.525	0.696	0.886 µM	0.118 µM	–	–	–	0.0153
O=c1c(-c2nc3ccccc3[nH]2)cc2ccccc2n1Cc1cn(Cc2ccccc2Cl)nn1	–	–	12.9 µM	9.27 µM	10.8	8.74	8.64 µM	3.2	–	–	3.33 µM	2.56 µM	2.4	1.36	2.41 µM	3.02
NC(Cc1c[nH]c2cc(F)ccc12)C(=O)O (configuration not stated)	> 2500 µM	–	> 2500 µM	> 2500 µM	> 2500	> 2500	> 2500 µM	> 2500	> 2500	–	912 µM	961 µM	1270	1940	1040 µM	> 2500

— PubChem BioAssay (NCI)
